The source of these data is ChEMBL document CHEMBL5223187, “A Quantum Mechanics-Based Method to Predict Intramolecular Hydrogen Bond Formation Reflecting P-glycoprotein Recognition” (ACS Med Chem Lett, 2023).

pIC50: −log10 of the molar value.

One series deals with Beta-secretase 1 (Homo sapiens, UniProt P56817). Briefly: Inhibition of BACE1 (unknown origin) by HTRF assay. (Time-resolved FRET reads energy transfer from a long-lived donor to a nearby acceptor.)
Series [1] can be described thus: Apparent permeability in pig LLC-PK1 cells by LC-MS/MS analysis. The format is ADME, cell-based, Sus scrofa.

Sequence of Beta-secretase 1 (P56817 whole entry): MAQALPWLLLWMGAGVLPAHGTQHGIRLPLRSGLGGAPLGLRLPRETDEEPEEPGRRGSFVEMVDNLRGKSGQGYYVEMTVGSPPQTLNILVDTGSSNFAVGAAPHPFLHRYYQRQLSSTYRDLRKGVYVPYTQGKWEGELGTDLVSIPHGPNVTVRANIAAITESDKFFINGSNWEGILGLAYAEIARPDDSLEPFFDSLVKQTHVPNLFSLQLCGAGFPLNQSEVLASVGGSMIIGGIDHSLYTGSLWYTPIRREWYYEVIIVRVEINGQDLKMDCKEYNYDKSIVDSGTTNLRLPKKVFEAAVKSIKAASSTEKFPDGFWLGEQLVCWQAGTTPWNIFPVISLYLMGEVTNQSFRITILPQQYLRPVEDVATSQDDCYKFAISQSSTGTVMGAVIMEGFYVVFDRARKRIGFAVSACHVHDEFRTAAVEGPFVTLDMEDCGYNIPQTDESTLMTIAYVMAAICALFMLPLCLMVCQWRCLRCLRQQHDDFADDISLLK

Usually pIC50 stands for the negative decadic logarithm of the IC50, by convention in mol/L. High values mean a low IC50, low ones a high IC50. Regarding `C[C@@]1(c2cc(NC(=O)c3ncc(C#N)cc3F)ccc2F)C=C(CF)OC(N)=N1`, at Beta-secretase 1, the pIC50 is 6.81.
As for `COc1cnc(C(=O)Nc2ccc(F)c([C@]3(C)C=C(CF)OC(N)=N3)c2)nc1`, the pIC50 against Beta-secretase 1 was 6.62.
On the same count and under the same terms, the same measure for `COc1cnc(C(=O)Nc2ccc(F)c([C@]3(C)C=C(CF)OC(N)=N3)c2)c(C)n1`: 6.31; for `C[C@@]1(c2cc(NC(=O)c3ccn(C(F)F)n3)ccc2F)C=C(CF)OC(N)=N1`: 7.08.
Usually Papp stands for the rate of passage across a membrane or cell layer, normalised by area and donor concentration. In the case of `C[C@@]1(c2cc(NC(=O)c3ccc(C#N)cn3)ccc2F)C=CSC(N)=N1` [ATABECESTAT], the Papp in series [1] came to 23 ×10⁻⁶ cm/s.
On the same count and under the same terms, the same measure for `C[C@@]1(c2cc(-c3cncnc3)c(F)cc2F)CCSC(N)=N1` [LY-2811376]: 33 ×10⁻⁶ cm/s.
